# According to patent publication US8940343B2, “Personal care composition” (Conopco Inc., priority 2010, dated 2015):
# Columns and labels:
# [1] = known phenolic antioxidants compared with theaflavin
# [2] = HPTLC photostability of Parsol 1789 spotted with potential quencher molecules (methanol stock solutions), UVR exposure, densitometry; type: physicochemical; conditions: Parsol 1789 remaining on HPTLC plate after UVR 5.5 mW/cm^2 for 120 minutes; ratios by weight
# Experimental: The method was based on spotting the HPTLC plates (in duplicate) with the sunscreen molecules of interest along with potential quencher molecules or formulations. The plate is then exposed to UVR (intensity 5.5 mW/cm^2) for 120 minutes. Following this the chromatographic separation was carried out using appropriate solvent system. Densitometry analysis is done to determine the amount of sunscreen degraded.
# Stock solutions were prepared in methanol following the ratios as mentioned in the following table. 14 μL of stock solutions were loaded (3 mm width; 16 mm separation) on a 10×10 cm F254 HPTLC plate, using CAMAG LINOMAT 5 applicator equipped with a 100 μL micro-syringe (Hamilton, Switzerland). Ascending chromatography was performed at a distance of 85 mm in a TLC chamber using n-hexane-ethyl acetate 9:1 (v/v) as the mobile phase (˜10 mL). The plates were dried at room temperature and subjected to ultraviolet absorption densitometry scan. The concentration dependent fluorescent bands due to presence of sunscreens were detected with a linear scan at 310 or 357 nm, using Camag TLC Scanner 3, in the presence of deuterium source. […] 4-t-buty-4′-methoxdibenzoylmethane concentrations present on each lane were determined from densitogram peak areas; prior and after the sun exposure using Win CATS Planar chromatography manager software.
Mean Percent stability [2],Structure (SMILES),stabilizing property for sunscreens [1]
–,COC(=O)c1cc(O)c(O)c(O)c1 [methyl gallate],did not provide the stabilizing property
61.9%,"COc1ccc(C(=O)CC(=O)c2ccc(C(C)(C)C)cc2)cc1 [Example 1a, 4-t-butyl-4′-methoxydibenzoylmethane]",–
